According to article PMC8403366, “Functional significance of gain-of-function H19 lncRNA in skeletal muscle differentiation and anti-obesity effects” (Genome Medicine, 2021):

What was measured:
Assay type in all cases: in vivo, mouse
[1] = test system: C57BL/6 J mice; assay: Tissue distribution / pharmacokinetics of biotinylated mimics; conditions: 10 mg/kg i.p.; streptavidin immunohistochemistry, 24 hours post administration; n = 5
Procedure: The H19-Rgof mimics and AGR-H19-Rgof mimics were synthesized by Bio-synthesis Inc. The linker that connected the peptide and RNA oligonucleotides was succinimidyl 4-(N-maleimidomethyl) cyclohexane-1-carboxylate (SMCC). RNA mimics sequences are listed in the Additional file 1: Table S1. To characterize the pharmacokinetics of H19-Rgof and AGR-H19-Rgof mimics, the biotinylated H19-Rgof and AGR-H19-Rgof mimics (10 mg/kg) were intraperitoneally injected into C57BL/6 J mice. The liver, kidneys, lungs, heart, and skeletal muscles of the animals were collected 3, 12, 24, 48, or 72 h post-injection (n = 5 animal per time point). Tissues were subjected to immunohistochemistry using streptavidin alkaline phosphatase conjugates and small RNA isolation in accordance with the manufacturer’s instructions using miRCURY™ RNA Isolation Kits (Qiagen). Immunostained tissue slides were obtained with a Vectra Polaris Multispectral Imaging scanner (PerkinElmer). The quantification of immunohistochemistry staining density was performed by Image-pro plus 6.0 (Media Cybernetics) and calculated based on the average staining intensity and the percentage of positively stained cells. Pharmacokinetic parameters were determined by nonlinear regression analysis.

[2] = test system: Lep^Ob/Ob mice; assay: Leptin deficiency-induced obesity model
Procedure: The mice used in this study were purchased from Jackson Lab as follows: Lep^Ob/Ob (stock 000632), C57BL/6 J (stock 000664). All animals were from a C57BL/6 J background and housed with a 12 h light/12 h dark cycle in the animal facility with free access to water and food. 4 to 10 mice were used in each group. Exact numbers for each experiment are included in the figure legends.
To determine the effects of H19-Rgof with a skeletal muscle enrichment peptide agrin (AGR-H19-Rgof) on WT C57BL/6 J or Lep^Ob/Ob mice, AGR-tagged oligonucleotides were used. The synthesis and sequence information of AGR-tagged RNA oligonucleotides are described in “Synthesis of H19-Rgof mimics, AGR-H19-Rgof mimics, and Pharmacokinetics (PK) studies.” AGR-Scr (conjugated to scramble oligonucleotides), H19-Rgof, or AGR-H19-Rgof mimics were injected at a dose of 1 mg/kg intraperitoneally into 3-week-old male and female mice. For AGR-H19-Rgof treatment in HFD (Cat # D12492, Research Diets, Inc.)-fed mice, male C57BL/6 J mice were fed with a HFD starting at 6 weeks of age. The AGR-H19-Rgof and AGR-Scr mimics were injected at a dose of 0.5 or 1 mg/kg intraperitoneally every other day starting 2 weeks after the initiation of HFD feeding. Body weight was measured weekly. The general health condition, grooming, and behavior of all animals were monitored daily, and injection sites were checked for signs of redness or edema.
Unless otherwise indicated, mice were fasted for 4–6 h, anesthetized with isoflurane, and sacrificed by heart puncture. Tissues were dissected, weighed, and either dipped in liquid nitrogen or fixed for immunohistochemistry analysis. Individual muscle was dissected on one side of the body and weighed. […]
H&E staining was performed in paraffin-embedded livers to visualize the pattern of lipid accumulation and inflammatory status. […] Adipocyte size (from WAT) was determined with ImageJ software. Sections from five animals per group were used and at least 500 adipocytes per animal were measured from multiple fields.

[3] = test system: C57BL/6 J mice; assay: Liver Oil Red O / H&E staining and WAT adipocyte size
Procedure: H&E staining was performed in paraffin-embedded livers to visualize the pattern of lipid accumulation and inflammatory status. Lipid droplet accumulation in the liver was visualized using Oil Red O (O0625, Sigma) staining of frozen liver sections prepared in an optimum cutting temperature (O.C.T.) compound (4585, Fisher Scientific). Histopathology images were acquired with a light microscope (Olympus). Adipocyte size (from WAT) was determined with ImageJ software. Sections from five animals per group were used and at least 500 adipocytes per animal were measured from multiple fields.

N-terminal-ELTNEIPAELTNEIPA-Linker-5'-[2’-F-C][2’-F-U][2’-F-C][2’-F-U][2’-F-U][2’-F-U][2’-F-A][2’-F-U][2’-F-U][2’-F-U][2’-F-C][2’-F-U][2’-F-G][2’-F-A][2’-F-G][2’-F-C][2’-F-U][2’-F-U][2’-F-U][2’-F-C][2’-F-C][2’-F-U][2’-F-A][2’-F-U][2’-F-C][2’-F-U][2’-F-U][2’-F-U][2’-F-C][2’-F-C]-3' [AGR-H19-Rgof]
accumulation in liver, kidneys and lungs [1]: minimal accumulation
biotin-labeled mimic detected in skeletal muscle [1]: substantial proportion
skeletal muscle distribution compared to unlabeled H19-Rgof [1]: significantly enhanced
fatty acid deposition in livers ([2]; Lep^ob/ob mice, Oil Red O, n = 8, 8): significantly improved
muscle mass ([2]; Lep^ob/ob mice, vs AGR-Scr, n = 10, 9): increased
body weight ([2]; male Lep^ob/ob mice, 8 weeks post-treatment, vs AGR-Scr, n = 10, 9): reduced
fatty acid deposition in the liver and WAT ([3]; HFD-fed mice, H&E and Oil Red O, liver weight): significantly reduced
adipocyte size in WAT ([3]; WT male mice on chow, H&E, vs AGR-Scr, n = 5): reduced
fatty acid accumulation in the liver ([3]; WT male mice on chow, Oil Red O, vs AGR-Scr, n = 8): reduced
